Columns and labels:
[1] = target: Proto-oncogene tyrosine-protein kinase Src (Homo sapiens, UniProt P12931); experiment: Competitive Binding Assay; details: pH 7.4; 22 °C
Procedure: (§1) Fluorescence polarization competitive binding assays were used to measure the IC50s of compounds binding to the different SH2 domains. The difference in polarization values of fluorescein-conjugated peptide reflects the bound and unbound state of the probe. IC50s were calculated based on the binding of the fluorescein-conjugated peptide to the protein with compound addition relative to vehicle-alone control samples.

[2] = target: T1, Tyrosine-protein kinase ZAP-70 (Homo sapiens, UniProt P43403); experiment: Competitive Binding Assay; details: pH 7.4; 22 °C
T1 sequence (P43403 whole entry): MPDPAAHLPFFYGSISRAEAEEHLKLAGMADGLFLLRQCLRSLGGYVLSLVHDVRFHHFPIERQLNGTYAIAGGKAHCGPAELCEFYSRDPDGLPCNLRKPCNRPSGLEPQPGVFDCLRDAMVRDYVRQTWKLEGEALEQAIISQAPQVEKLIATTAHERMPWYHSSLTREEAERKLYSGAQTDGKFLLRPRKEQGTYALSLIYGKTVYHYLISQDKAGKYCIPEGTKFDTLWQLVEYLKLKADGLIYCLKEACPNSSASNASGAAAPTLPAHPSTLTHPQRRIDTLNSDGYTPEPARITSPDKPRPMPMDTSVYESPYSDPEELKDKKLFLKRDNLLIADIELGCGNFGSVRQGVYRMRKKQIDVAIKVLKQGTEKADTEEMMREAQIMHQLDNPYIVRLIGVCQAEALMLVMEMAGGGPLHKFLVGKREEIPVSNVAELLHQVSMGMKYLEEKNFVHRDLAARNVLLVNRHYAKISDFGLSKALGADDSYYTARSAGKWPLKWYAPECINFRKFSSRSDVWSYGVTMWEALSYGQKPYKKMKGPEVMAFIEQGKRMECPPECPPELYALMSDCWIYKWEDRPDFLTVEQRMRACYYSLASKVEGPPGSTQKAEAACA
Procedure: as §1

Sequence of Proto-oncogene tyrosine-protein kinase Src (P12931 2-536 limits assumed): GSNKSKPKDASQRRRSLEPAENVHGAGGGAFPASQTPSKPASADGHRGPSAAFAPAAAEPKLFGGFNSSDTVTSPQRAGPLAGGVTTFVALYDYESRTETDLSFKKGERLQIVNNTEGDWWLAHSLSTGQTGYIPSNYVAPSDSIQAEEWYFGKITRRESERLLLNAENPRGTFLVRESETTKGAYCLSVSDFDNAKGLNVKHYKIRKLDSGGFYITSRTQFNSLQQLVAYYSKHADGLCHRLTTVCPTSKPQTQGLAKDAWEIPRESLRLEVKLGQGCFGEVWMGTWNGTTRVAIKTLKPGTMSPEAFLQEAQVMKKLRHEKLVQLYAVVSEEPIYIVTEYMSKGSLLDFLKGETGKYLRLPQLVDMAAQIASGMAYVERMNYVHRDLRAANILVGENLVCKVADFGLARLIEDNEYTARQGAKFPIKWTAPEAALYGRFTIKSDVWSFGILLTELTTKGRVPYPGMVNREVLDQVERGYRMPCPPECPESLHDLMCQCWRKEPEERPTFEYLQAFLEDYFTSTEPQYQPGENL

- IC50 [1]: 312 µM
- IC50 [2]: > 500 µM
Structure (SMILES): CC(=O)N[C@@H](Cc1ccc(OP(=O)(O)O)cc1)C(=O)N[C@@H](CCC(N)=O)c1nc(Cc2c(C)cc(C)cc2C)no1 [4-[(2S)-2-{[(1S)-3-carbamoyl-1-{3-[(2,4,6-trimethylphenyl)methyl]-1,2,4-oxadiazol-5-yl}propyl]carbamoyl}-2-acetamidoethyl]phenoxyphosphonic acid]

— BindingDB's records for doi:10.1021/jm990229t (Ariad Pharmaceuticals, 1999)
